Consider three compounds from patent US4371466A, “Mammalian collagenase inhibitors” (American Home Products Corporation, priority 1981, dated 1983).

Non-standard residues stand in square brackets, D forms with d. Residues, ends and D or L forms follow the SMILES beside them. pGlu = O=C1CC[C@@H](C(=O)O)N1

The assay concerns collagenase. Nature of the assay: Collagenase inhibition, acetyl 14C collagen hydrolysis (procedure of Sellers et al.). The class given is biochemical. Particulars: 2 mM inhibitor, 35° C., 5 to 18 hours, Tris-CaCl2 pH 7.4, versus control devoid of inhibitor. On the procedure:
The collagen is acetyl ^14 C collagen. The samples are centrifuged and an aliquot removed for assay on a scintillation counter. Because native collagen forms insoluble fibrils under the test conditions, the supernatant liquid contains radioactivity as a measure of hydrolysis. The collagenase activity in the presence of 2 mM inhibitor is compared to activity in a control devoid of inhibitor and the results reported as percent inhibition of collagenase activity. Each of the compounds of this invention have been established as active collagenase inhibitors by the test procedure.
The following examples illustrate the preparation of typical representative compounds of the invention. After each preparative example, the percent inhibition of collagenase activity at the 2 mM level of inhibition in accordance with the previously described standart testing procedure is provided.
Take `CC[C@H](C)[C@H](NC(=O)[C@H](CS)NC(=O)[C@@H]1CCC(=O)N1)C(N)=O` [Example 2, L-pGlu-L-Cys-L-Ile-NH2] ([pGlu]-Cys-Ile-NH2): the Percent inhibition collagenase came to 75%. In turn, “Ac-PQGIAG-NH2 [Example 3, CH3 CO-Pro-Gln-Gly-Ile-Ala-Gly-NH2]” displayed a Percent inhibition collagenase of 35%. Turning to `CC[C@H](C)[C@H](NC(=O)[C@@H](N)CS)C(N)=O` [Example 1, H-L-Cys-L-Ile-NH2] (H-Cys-Ile-NH2), the Percent inhibition collagenase is on record as 35%.
